Measurements published in PubChem BioAssay AID1918991 (Molecular Pharmacology Branch, DTP, NCI, 2023).

Tested on: 186277-243-T-J2-PDC complex spheroid growth
Assay: Anticancer human tumor 186277-243-T-J2-PDC patient-derived colon adenocarcinoma cell line growth inhibition [AhR]
Details: for IC50: curve of first compound; for viability, T/C: stronger effect = lower value
Summary of the method: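 Spheroids combined tumor cells with HUVEC endothelial cells and human MSCs as stroma. AhR antagonists were paired with standard or investigational drugs, each dosed in half-log steps down from near clinical Cmax, or from 10 microM where Cmax was unknown.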

[1] = second compound 0.1 µM, first compound 0.0316 µM
[2] = second compound 0.1 µM, first compound 0.1 µM
[3] = second compound 0.1 µM, first compound 0.316 µM
[4] = second compound 0.1 µM, first compound 1 µM
[5] = second compound 0.316 µM, first compound 0.0316 µM
[6] = second compound 0.316 µM, first compound 0.1 µM
[7] = second compound 0.316 µM, first compound 0.316 µM
[8] = second compound 0.316 µM, first compound 1 µM
[9] = second compound 1 µM, first compound 0.0316 µM
[10] = second compound 1 µM, first compound 0.1 µM
[11] = second compound 1 µM, first compound 0.316 µM
[12] = second compound 1 µM, first compound 1 µM
[13] = second compound 3.16 µM, first compound 0.0316 µM
[14] = second compound 3.16 µM, first compound 0.1 µM
[15] = second compound 3.16 µM, first compound 0.316 µM
[16] = second compound 3.16 µM, first compound 1 µM
[17] = second compound 10 µM, first compound 0.0316 µM
[18] = second compound 10 µM, first compound 0.1 µM
[19] = second compound 10 µM, first compound 0.316 µM
[20] = second compound 10 µM, first compound 1 µM
[21] = second compound 0.1 µM, first compound 0.00949 µM
[22] = second compound 0.1 µM, first compound 0.03 µM
[23] = second compound 0.1 µM, first compound 0.0949 µM
[24] = second compound 0.1 µM, first compound 0.3 µM
[25] = second compound 0.1 µM, first compound 0.949 µM
[26] = second compound 0.1 µM, first compound 3 µM
[27] = second compound 0.316 µM, first compound 0.00949 µM
[28] = second compound 0.316 µM, first compound 0.03 µM
[29] = second compound 0.316 µM, first compound 0.0949 µM
[30] = second compound 0.316 µM, first compound 0.3 µM
[31] = second compound 0.316 µM, first compound 0.949 µM
[32] = second compound 0.316 µM, first compound 3 µM
[33] = second compound 1 µM, first compound 0.00949 µM
[34] = second compound 1 µM, first compound 0.03 µM
[35] = second compound 1 µM, first compound 0.0949 µM
[36] = second compound 1 µM, first compound 0.3 µM
[37] = second compound 1 µM, first compound 0.949 µM
[38] = second compound 1 µM, first compound 3 µM
[39] = second compound 3.16 µM, first compound 0.00949 µM
[40] = second compound 3.16 µM, first compound 0.03 µM
[41] = second compound 3.16 µM, first compound 0.0949 µM
[42] = second compound 3.16 µM, first compound 0.3 µM
[43] = second compound 3.16 µM, first compound 0.949 µM
[44] = second compound 3.16 µM, first compound 3 µM
[45] = second compound 10 µM, first compound 0.00949 µM
[46] = second compound 10 µM, first compound 0.03 µM
[47] = second compound 10 µM, first compound 0.0949 µM
[48] = second compound 10 µM, first compound 0.3 µM
[49] = second compound 10 µM, first compound 0.949 µM
[50] = second compound 10 µM, first compound 3 µM
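Also: spheroids exposed to compounds for seven days before the viability read.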
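For viability, T/C in this document: luminescent signal used as a stand-in for viable cell amount; 100% = DMSO vehicle control wells.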

CC1COCCN1c1cc(-c2ccnn2C)c2ccnc(-c3ccn[nH]3)c2n1 (stereo not given) + CC(CO)NC(=O)c1cc(-c2ccc(Cl)cc2)nn(-c2cnn(C)c2)c1=O
IC50 (second compound 0.1 µM): 24.3 nM | IC50 (second compound 0.316 µM): 23.6 nM | IC50 (second compound 1 µM): 20.4 nM | IC50 (second compound 3.16 µM): 19.2 nM | IC50 (second compound 10 µM): 11.4 nM | viability, T/C (second compound 0.1 µM, first compound 0.00316 µM): 100% | viability, T/C (second compound 0.1 µM, first compound 0.01 µM): 89.9% | viability, T/C [1]: 38.1% | viability, T/C [2]: 7.53% | viability, T/C [3]: 3.44% | viability, T/C [4]: 2.42% | viability, T/C (second compound 0.316 µM, first compound 0.00316 µM): 91% | viability, T/C (second compound 0.316 µM, first compound 0.01 µM): 86.3% | viability, T/C [5]: 37.5% | viability, T/C [6]: 6.69% | viability, T/C [7]: 2.84% | viability, T/C [8]: 2.25% | viability, T/C (second compound 1 µM, first compound 0.00316 µM): 103% | viability, T/C (second compound 1 µM, first compound 0.01 µM): 77% | viability, T/C [9]: 34.2% | viability, T/C [10]: 6.17% | viability, T/C [11]: 3.4% | viability, T/C [12]: 2.51% | viability, T/C (second compound 3.16 µM, first compound 0.00316 µM): 82.3% | viability, T/C (second compound 3.16 µM, first compound 0.01 µM): 84.8% | viability, T/C [13]: 24.2% | viability, T/C [14]: 6.02% | viability, T/C [15]: 3.47% | viability, T/C [16]: 2.6% | viability, T/C (second compound 10 µM, first compound 0.00316 µM): 79.3% | viability, T/C (second compound 10 µM, first compound 0.01 µM): 54.1% | viability, T/C [17]: 18.2% | viability, T/C [18]: 6.38% | viability, T/C [19]: 3.92% | viability, T/C [20]: 2.78%

CC1COCCN1c1cc(C2(S(C)(=N)=O)CC2)nc(-c2ccnc3[nH]ccc23)n1 (stereo not given) + CC(CO)NC(=O)c1cc(-c2ccc(Cl)cc2)nn(-c2cnn(C)c2)c1=O
IC50 (second compound 0.1 µM): 885 nM | IC50 (second compound 0.316 µM): 899 nM | IC50 (second compound 1 µM): 801 nM | IC50 (second compound 3.16 µM): 734 nM | IC50 (second compound 10 µM): 611 nM | viability, T/C [1]: 99.5% | viability, T/C [2]: 97.3% | viability, T/C [3]: 86% | viability, T/C [4]: 47% | viability, T/C (second compound 0.1 µM, first compound 3.16 µM): 5.74% | viability, T/C (second compound 0.1 µM, first compound 10 µM): 3.37% | viability, T/C [5]: 97.9% | viability, T/C [6]: 101% | viability, T/C [7]: 87.3% | viability, T/C [8]: 47.1% | viability, T/C (second compound 0.316 µM, first compound 3.16 µM): 6.52% | viability, T/C (second compound 0.316 µM, first compound 10 µM): 3.04% | viability, T/C [9]: 109% | viability, T/C [10]: 92.8% | viability, T/C [11]: 89.8% | viability, T/C [12]: 41.1% | viability, T/C (second compound 1 µM, first compound 3.16 µM): 5.47% | viability, T/C (second compound 1 µM, first compound 10 µM): 2.94% | viability, T/C [13]: 91.1% | viability, T/C [14]: 90.9% | viability, T/C [15]: 76.9% | viability, T/C [16]: 41% | viability, T/C (second compound 3.16 µM, first compound 3.16 µM): 5.43% | viability, T/C (second compound 3.16 µM, first compound 10 µM): 2.86% | viability, T/C [17]: 76.3% | viability, T/C [18]: 75.9% | viability, T/C [19]: 71.8% | viability, T/C [20]: 33.7% | viability, T/C (second compound 10 µM, first compound 3.16 µM): 6.79% | viability, T/C (second compound 10 µM, first compound 10 µM): 3.4%

CCN(c1cc(-c2ccc(CN3CCOCC3)cc2)cc(C(=O)NCc2c(C)cc(C)[nH]c2=O)c1C)C1CCOCC1 + CC(CO)NC(=O)c1cc(-c2ccc(Cl)cc2)nn(-c2cnn(C)c2)c1=O
IC50 (second compound 0.1 µM): > 3000 nM | IC50 (second compound 0.316 µM): > 3000 nM | IC50 (second compound 1 µM): > 3000 nM | IC50 (second compound 3.16 µM): > 3000 nM | IC50 (second compound 10 µM): > 3000 nM | viability, T/C [21]: 97.8% | viability, T/C [22]: 106% | viability, T/C [23]: 82.9% | viability, T/C [24]: 94.5% | viability, T/C [25]: 102% | viability, T/C [26]: 85.1% | viability, T/C [27]: 109% | viability, T/C [28]: 95.8% | viability, T/C [29]: 89.8% | viability, T/C [30]: 93.3% | viability, T/C [31]: 90.3% | viability, T/C [32]: 91.9% | viability, T/C [33]: 83.5% | viability, T/C [34]: 90.5% | viability, T/C [35]: 88.2% | viability, T/C [36]: 87.8% | viability, T/C [37]: 82.2% | viability, T/C [38]: 101% | viability, T/C [39]: 96.5% | viability, T/C [40]: 101% | viability, T/C [41]: 89.4% | viability, T/C [42]: 80.7% | viability, T/C [43]: 92.3% | viability, T/C [44]: 85.8% | viability, T/C [45]: 88.5% | viability, T/C [46]: 69.8% | viability, T/C [47]: 80.5% | viability, T/C [48]: 87.4% | viability, T/C [49]: 73.5% | viability, T/C [50]: 82.6%

Nc1ncn(C2CC(O)C(CO)S2)c(=O)n1 (stereo not given) + CC(CO)NC(=O)c1cc(-c2ccc(Cl)cc2)nn(-c2cnn(C)c2)c1=O
IC50 (second compound 0.1 µM): 139 nM | IC50 (second compound 0.316 µM): 118 nM | IC50 (second compound 1 µM): 132 nM | IC50 (second compound 3.16 µM): 142 nM | IC50 (second compound 10 µM): 118 nM | viability, T/C (second compound 0.1 µM, first compound 0.000949 µM): 101% | viability, T/C (second compound 0.1 µM, first compound 0.003 µM): 94.8% | viability, T/C [21]: 93% | viability, T/C [22]: 85.6% | viability, T/C [23]: 59.6% | viability, T/C [24]: 29.9% | viability, T/C (second compound 0.316 µM, first compound 0.000949 µM): 83.6% | viability, T/C (second compound 0.316 µM, first compound 0.003 µM): 92.8% | viability, T/C [27]: 92.8% | viability, T/C [28]: 93.1% | viability, T/C [29]: 55% | viability, T/C [30]: 29.1% | viability, T/C (second compound 1 µM, first compound 0.000949 µM): 102% | viability, T/C (second compound 1 µM, first compound 0.003 µM): 100% | viability, T/C [33]: 99.4% | viability, T/C [34]: 94.2% | viability, T/C [35]: 56.7% | viability, T/C [36]: 33.1% | viability, T/C (second compound 3.16 µM, first compound 0.000949 µM): 82% | viability, T/C (second compound 3.16 µM, first compound 0.003 µM): 93% | viability, T/C [39]: 92% | viability, T/C [40]: 85% | viability, T/C [41]: 59.8% | viability, T/C [42]: 32% | viability, T/C (second compound 10 µM, first compound 0.000949 µM): 89.1% | viability, T/C (second compound 10 µM, first compound 0.003 µM): 75.1% | viability, T/C [45]: 89.1% | viability, T/C [46]: 66.8% | viability, T/C [47]: 55.1% | viability, T/C [48]: 34.2%

O=C(C=Cn1cnc(-c2cc(C(F)(F)F)cc(C(F)(F)F)c2)n1)NNc1cnccn1 + CC(CO)NC(=O)c1cc(-c2ccc(Cl)cc2)nn(-c2cnn(C)c2)c1=O
IC50 (second compound 0.1 µM): 86.6 nM | IC50 (second compound 0.316 µM): 89.2 nM | IC50 (second compound 1 µM): 73.2 nM | IC50 (second compound 3.16 µM): 72.9 nM | IC50 (second compound 10 µM): 43.9 nM | viability, T/C [21]: 80.4% | viability, T/C [22]: 78.3% | viability, T/C [23]: 46.8% | viability, T/C [24]: 13.1% | viability, T/C [25]: 3.75% | viability, T/C [26]: 1.33% | viability, T/C [27]: 78% | viability, T/C [28]: 83.5% | viability, T/C [29]: 46.7% | viability, T/C [30]: 12.6% | viability, T/C [31]: 4.18% | viability, T/C [32]: 1.56% | viability, T/C [33]: 83.3% | viability, T/C [34]: 67.6% | viability, T/C [35]: 46.9% | viability, T/C [36]: 13.4% | viability, T/C [37]: 4.21% | viability, T/C [38]: 1.3% | viability, T/C [39]: 67.8% | viability, T/C [40]: 63.8% | viability, T/C [41]: 46% | viability, T/C [42]: 12.6% | viability, T/C [43]: 4.26% | viability, T/C [44]: 2.11% | viability, T/C [45]: 62% | viability, T/C [46]: 55% | viability, T/C [47]: 38% | viability, T/C [48]: 11.7% | viability, T/C [49]: 3.48% | viability, T/C [50]: 2.03%
